Experimental data reported in patent US9040545B2, “Heterocyclyl pyrazolopyrimidine analogues as selective JAK inhibitors” (Cellzome Limited, priority 2010, dated 2015).

Target: T1, Aurora A (Homo sapiens, UniProt O14965)
T1 construct: cell lysates from Jurkat cells (ATCC TIB-152) used; endogenous in cells; host or cells: Jurkat cells (ATCC TIB-152), treated with pervanadate
T1 sequence (O14965 1-403): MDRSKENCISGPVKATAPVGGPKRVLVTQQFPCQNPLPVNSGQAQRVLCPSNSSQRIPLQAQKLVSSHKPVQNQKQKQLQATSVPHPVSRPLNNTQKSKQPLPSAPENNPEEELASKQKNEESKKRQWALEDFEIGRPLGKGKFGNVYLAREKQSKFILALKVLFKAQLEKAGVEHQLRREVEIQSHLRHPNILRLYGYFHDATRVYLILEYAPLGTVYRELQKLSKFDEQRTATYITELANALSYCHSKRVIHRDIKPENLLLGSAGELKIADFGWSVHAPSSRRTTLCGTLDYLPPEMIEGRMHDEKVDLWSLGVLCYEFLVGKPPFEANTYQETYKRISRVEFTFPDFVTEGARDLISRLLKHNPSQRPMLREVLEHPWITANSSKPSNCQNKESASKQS
Experiment: Kinobeads assay, Aurora A
Format: binding
Details: for IC50: lysate of pervanadate-treated Jurkat cells, read-out: Inhibition values (IC50) Aur A
Procedure: The compounds of the present invention as described in the previous examples were tested in a Kinobeads™ assay as described for ZAP-70 (WO-A 2007/137867). Briefly, test compounds (at various concentrations) and the affinity matrix with the immobilized aminopyrido-pyrimidine ligand 24 were added to cell lysate aliquots and allowed to bind to the proteins in the lysate sample. After the incubation time the beads with captured proteins were separated from the lysate. Bound proteins were then eluted and the presence of JAK2 and JAK3 was detected and quantified using specific antibodies in a dot blot procedure and the Odyssey infrared detection system. Dose response curves for individual kinases were generated and IC50 values calculated. Kinobeads™ assays for ZAP-70 (WO-A 2007/137867) and for kinase selectivity profiling (WO-A 2006/134056) have been previously described.
The affinity matrix was washed two times with 15 mL of 1×DP buffer containing 0.2% NP40 (IGEPAL® CA-630, Sigma, #I3021) and then resuspended in 1×DP buffer containing 0.2% NP40 (3% beads slurry).
5×DP buffer 250 mM Tris-HCl pH 7.4, 25% Glycerol, 7.5 mM MgCl2, 750 mM NaCl, 5 mM Na3VO4; filter the 5×DP buffer through a 0.22 μm filter and store in aliquots at −80° C. The 5×DP buffer is diluted with H2O to 1×DP buffer containing 1 mM DTT and 25 mM NaF.
Stock solutions of test compounds were prepared in DMSO. In a 96 well plate 30 μL solution of diluted test compounds at 5 mM in DMSO were prepared. Starting with this solution a 1:3 dilution series (9 steps) was prepared. For control experiments (no test compound) a buffer containing 2% DMSO was used.
Cell lysate (approximately 50 mg protein per plate) was thawed in a water bath at room temperature and then stored on ice. To the thawed cell lysate 1×DP 0.8% NP40 buffer containing protease inhibitors (1 tablet for 25 mL buffer; EDTA-free protease inhibitor cocktail; Roche Diagnostics 1873580) was added in order to reach a final protein concentration of 10 mg/mL total protein. The diluted cell lysate was stored on ice. Mixed Molt4/Ramos lysate was prepared by combining one volume of Molt4 lysate and two volumes of Ramos lysate (ratio 1:2).
To a 96 well filter plate (Multiscreen HTS, BV Filter Plates, Millipore #MSBVN1250) were added per well: 100 μL affinity matrix (3% beads slurry), 3 μL of compound solution, and 50 μL of diluted lysate. Plates were sealed and incubated for 3 hours in a cold room on a plate shaker (Heidolph tiramax 1000) at 750 rpm. Afterwards the plate was washed 3 times with 230 μL washing buffer (1×DP 0.4% NP40). The filter plate was placed on top of a collection 1 plate (Greiner bio-one, PP-microplate 96 well V-shape, 65120) and the beads were then eluted with 20 μL of sample buffer (100 mM Tris, pH 7.4, 4% SDS, 0.00025% bromophenol blue, 20% glycerol, 50 mM DTT). The eluate was frozen quickly at −80° C. and stored at −20° C.
The kinases in the eluates were detected and quantified by spotting on nitrocellulose membranes and using a first antibody directed against the kinase of interest and a fluorescently labelled secondary antibody (anti-rabbit IRDye™ antibody 800 (Licor, #926-32211). The Odyssey Infrared Imaging system from LI-COR Biosciences (Lincoln, Nebr., USA) was operated according to instructions provided by the manufacturer (Schutz-Geschwendener et al, 2004. Quantitative, two-color Western blot detection with infrared fluorescence. Published May 2004 by LI-COR Biosciences, www.licor.com).
After spotting of the eluates the nitrocellulose membrane (BioTrace NT; PALL, #BTNT30R) was first blocked by incubation with Odyssey blocking buffer (LICOR, 927-40000) for 1 hour at room temperature. Blocked membranes were then incubated for 16 hours at the temperature shown in Table 5 with the first antibody diluted in Odyssey blocking buffer (LICOR #927-40000). Afterwards the membrane was washed twice for 10 minutes with PBS buffer containing 0.2% Tween 20 at room temperature. […]

| JAK3/AurA Fold Selectivity | IC50 [nM] | SMILES |
| --- | --- | --- |
| >50 Fold | 1000 to 10000 | Fc1cc(N2CCOCC2)c(F)c(Cn2ncc3cnc(Nc4cnn(CC5CCNC5)c4)nc32)c1F (stereo not shown) [Example 94, N-(1-(pyrrolidin-3-ylmethyl)-1H-pyrazol-4-yl)-1-(2,3,6-trifluoro-5-morpholinobenzyl)-1H-pyrazolo[3,4-d]pyrimidin-6-amine] |
| >50 Fold | 1000 to 10000 | CN(C)CC(O)Cn1cc(Nc2ncc3cnn(Cc4cccc(N5CCOCC5)c4)c3n2)cn1 (stereo not shown) [Example 33, 1-(Dimethylamino)-3-(4-((1-(3-morpholinobenzyl)-1H-pyrazolo[3,4-d]pyrimidin-6-yl)amino)-1H-pyrazol-1-yl)propan-2-ol] |
| 3-10 Fold | 100 to 1000 | O=C1COCCN1c1cccc(Cn2ncc3cnc(Nc4cnn(CCO)c4)nc32)c1 [Example 29, 4-(3-((6-((1-(2-Hydroxyethyl)-1H-pyrazol-4-yl)amino)-1H-pyrazolo[3,4-d]pyrimidin-1-yl)methyl)phenyl)morpholin-3-one] |
| >50 Fold | 1000 to 10000 | C[C@@H]1COCCN1c1cccc(Cn2ncc3cnc(Nc4cnn(C)c4)nc32)c1 [Example 113, (R)-N-(1-methyl-1H-pyrazol-4-yl)-1-(3-(3-methylmorpholino)benzyl)-1H-pyrazolo[3,4-d]pyrimidin-6-amine] |
| 10-50 Fold | 100 to 1000 | CNC(=O)CCn1cc(Nc2ncc3cnn(Cc4cccc(N5CCOCC5)c4)c3n2)cn1 [Example 24, N-Methyl-3-(4-((1-(3-morpholinobenzyl)-1H-pyrazolo[3,4-d]pyrimidin-6-yl)amino)-1H-pyrazol-1-yl)propanamide] |
| 10-50 Fold | 100 to 1000 | O=C1COCCN1c1cc(F)cc(Cn2ncc3cnc(Nc4cnn(CCS(=O)(=O)NC5CC5)c4)nc32)c1 [Example 106, N-cyclopropyl-2-(4-((1-(3-fluoro-5-(3-oxomorpholino)benzyl)-1H-pyrazolo[3,4-d]pyrimidin-6-yl)amino)-1H-pyrazol-1-yl)ethanesulfonamide] |
| 10-50 Fold | 100 to 1000 | Cn1cc(Nc2ncc3cnn(Cc4cccc(-c5cnn(CCO)c5)c4)c3n2)cn1 [Example 121, 2-(4-(3-((6-((1-methyl-1H-pyrazol-4-yl)amino)-1H-pyrazolo[3,4-d]pyrimidin-1-yl)methyl)phenyl)-1H-pyrazol-1-yl)ethanol] |
| 3-10 Fold | 1000 to 10000 | CCOC(=O)C1CCCN(c2cccc(Cn3ncc4cnc(Nc5cnn(C)c5)nc43)c2)C1 (stereo not shown) [Example 13, Ethyl 1-(3-((6-((1-methyl-1H-pyrazol-4-yl)amino)-1H-pyrazolo[3,4-d]pyrimidin-1-yl)methyl)phenyl)piperidine-3-carboxylate] |
| 10-50 Fold | 100 to 1000 | Cn1cc(-c2cc(F)c(F)c(Cn3ncc4cnc(Nc5cnn(CCO)c5)nc43)c2)cn1 [Example 127, 2-(4-((1-(2,3-difluoro-5-(1-methyl-1H-pyrazol-4-yl)benzyl)-1H-pyrazolo[3,4-d]pyrimidin-6-yl)amino)-1H-pyrazol-1-yl)ethanol] |
| 10-50 Fold | 100 to 1000 | Cn1cc(Nc2ncc3cnn(Cc4c(F)ccc(N5CCOCC5)c4F)c3n2)cn1 [Example 38, 1-(2,6-Difluoro-3-morpholinobenzyl)-N-(1-methyl-1H-pyrazol-4-yl)-1H-pyrazolo[3,4-d]pyrimidin-6-amine] |
| 10-50 Fold | 1000 to 10000 | CNCC1(Cn2cc(Nc3ncc4cnn(Cc5cccc(N6CCOCC6)c5)c4n3)cn2)COC1 [Example 41, N-(1-((3-((Methylamino)methyl)oxetan-3-yl)methyl)-1H-pyrazol-4-yl)-1-(3-morpholinobenzyl)-1H-pyrazolo[3,4-d]pyrimidin-6-amine] |
| >50 Fold | 1000 to 10000 | Cn1cc(Nc2ncc3cnn(Cc4c(F)c(F)cc(C(=O)N5CCOCC5)c4F)c3n2)cn1 [Example 110, morpholino(2,4,5-trifluoro-3-((6-((1-methyl-1H-pyrazol-4-yl)amino)-1H-pyrazolo[3,4-d]pyrimidin-1-yl)methyl)phenyl)methanone] |
| 10-50 Fold | 100 to 1000 | CN(C)CC(F)Cn1cc(Nc2ncc3cnn(Cc4cc(F)cc(N5CCOCC5=O)c4)c3n2)cn1 (stereo not shown) [Example 97, 4-(3-((6-((1-(3-(dimethylamino)-2-fluoropropyl)-1H-pyrazol-4-yl)amino)-1H-pyrazolo[3,4-d]pyrimidin-1-yl)methyl)-5-fluorophenyl)morpholin-3-one] |
| 10-50 Fold | 1000 to 10000 | Cn1cc(Nc2ncc3cnn(Cc4cccc(N5CCC(F)(F)CC5)c4)c3n2)cn1 [Example 19, 1-(3-(4,4-Difluoropiperidin-1-yl)benzyl)-N-(1-methyl-1H-pyrazol-4-yl)-1H-pyrazolo[3,4-d]pyrimidin-6-amine] |
| 3-10 Fold | < 100 | Cn1cc(Nc2ncc3cnn(Cc4cc(C(=O)N5CCOCC5)cc(F)c4F)c3n2)cn1 [Example 98, (3,4-difluoro-5-((6-((1-methyl-1H-pyrazol-4-yl)amino)-1H-pyrazolo[3,4-d]pyrimidin-1-yl)methyl)phenyl)(morpholino)methanone] |
| 3-10 Fold | 100 to 1000 | Cn1cc(Nc2ncc3cnn(Cc4cccc(N5CCN(S(C)(=O)=O)CC5)c4)c3n2)cn1 [Example 100, N-(1-methyl-1H-pyrazol-4-yl)-1-(3-(4-(methylsulfonyl)piperazin-1-yl)benzyl)-1H-pyrazolo[3,4-d]pyrimidin-6-amine] |
| 10-50 Fold | 100 to 1000 | CN(C)C(=O)CCn1cc(Nc2ncc3cnn(Cc4cccc(N5CCOCC5)c4)c3n2)cn1 [Example 16, N,N-Dimethyl-3-(4-((1-(3-morpholinobenzyl)-1H-pyrazolo[3,4-d]pyrimidin-6-yl)amino)-1H-pyrazol-1-yl)propanamide] |
| 10-50 Fold | 1000 to 10000 | Cn1cc(Nc2ncc3cnn(Cc4cc(N5CCOCC5)ccc4F)c3n2)cn1 [Example 15, 1-(2-Fluoro-5-morpholinobenzyl)-N-(1-methyl-1H-pyrazol-4-yl)-1H-pyrazolo[3,4-d]pyrimidin-6-amine] |
| >50 Fold | 1000 to 10000 | Cn1cc(Nc2ncc3cnn(Cc4cc(-c5cnn(C)c5)cc(F)c4F)c3n2)cn1 [Example 126, 1-(2,3-difluoro-5-(1-methyl-1H-pyrazol-4-yl)benzyl)-N-(1-methyl-1H-pyrazol-4-yl)-1H-pyrazolo[3,4-d]pyrimidin-6-amine] |
| 3-10 Fold | < 100 | Cn1cc(Nc2ncc3cnn(Cc4cccc(N5CCOCC5)c4Cl)c3n2)cn1 [Example 103, 1-(2-chloro-3-morpholinobenzyl)-N-(1-methyl-1H-pyrazol-4-yl)-1H-pyrazolo[3,4-d]pyrimidin-6-amine] |
